The text below walks through data of patent publication EP1085812B1, “POTATO CYST NEMATODE CONTROLLING FACTORS AND THEIR USE IN AGRICULTURE” (priority 1998, dated 1999).

For data set [1], the system named is G. rostochiensis pathotype Ro-1. Kind of data set: Interaction of glycoalkaloid dilution series with PRL in hatching assay. Type of data set: in vivo. The following applies: Fig. 9. The source says: To investigate these interactions further, the response of PCN hatch to a dilution series of single natural potato-produced HFs (the glycoalkaloids α-solanine and α-chaconine: Devine, K.J. et al. ((1996) supra) was studied in the presence and absence of a PRL preparation, the concentration of the latter being adjusted to that used in Figs. 4 and 5.
Logarithmic dilution series ([…]) of the glycoalkaloids α-chaconine and α-solanine (Sigma Chemical Co. Poole, UK) were each prepared either in water or PRL (1mg ml^-1). Hatching activity was determined in these dilution series, with PRL (1mg ml^-1) and water as controls.
At each glycoalkaloid concentration, the hatching activity of (glycoalkaloid only), (PRL only) and (glycolalkaloid + PRL) preparations was determined. The difference between the observed hatch (in the presence of (glycoalkaloid only), (PRL only) and (glycoalkaloid + PRL) and the expected hatch if the effects of the glycoalkaloid and PRL were additive, (i.e. (glycoalkaloid only)) + (PRL only) was determined at each concentration of glycoalkaloid. The results are depicted in Fig. 9.

For data set [2] the following is noted: cited from earlier work.
A further data set relates to PCN. The following applies: in aqueous solutions or as a solid; cited from earlier work.

Like-named read-outs stand apart in the source and are kept apart here.

With `C[C@H]1CC[C@@H]2[C@@H](C)[C@H]3[C@H](C[C@H]4[C@@H]5CC=C6C[C@@H](O[C@@H]7O[C@H](CO)[C@H](O)[C@H](O[C@@H]8O[C@H](CO)[C@@H](O)[C@H](O)[C@H]8O)[C@H]7O[C@@H]7O[C@@H](C)[C@H](O)[C@@H](O)[C@H]7O)CC[C@]6(C)[C@H]5CC[C@]34C)N2C1` [α-solanine], the “effect on hatching activity of PRL” value is on record as “markedly inhibited” in data set [1] (high concentrations of glycoalkaloid, dilution series in PRL (1mg ml^-1)) and “interacted synergistically” in data set [1] (lower concentrations of glycoalkaloid, over a range of four orders of magnitude).
Consider “trans-2-(2-,13-dihydroxy-9-methoxy-7,7,16-trimethyl-5,10,20-trioxo-19-oxahexacyclo [9.7.0.1^3,6.0^3,8.1^12,16]-eicosa-1(11),8-dien-15-yl) cyclopropropanecarboxylic acid [hatching agent]”, for which, in data set [2] (pH below 2 and above 7), the stability entry is on record as “unstable”. In addition, the stability entry in data set [2] (temperatures above about 35°C) is listed as “unstable”. In the data set with PCN, the “concentration at which active” value is 0.01 - 1000 mg/kg soil and the optimum concentration is listed as 1 - 100 mg/kg soil.
